Toxic doses and inconclusive results are not listed.
Tested on: CD2F1 mice, L1210 leukemia ip, survival T/C
Test: NCI In Vivo Anticancer Drug Screen. Data for tumor model L1210 Leukemia (intraperitoneal) in CD2F1 (CDF1) mice
Settings: higher = longer survival
Summary of the method: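 Compound-dosed mice with transplantable tumor versus matched vehicle controls; endpoint ratio T/C reported.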

[1] = endpoint: mean survival time, dose: 100.0 mg/kg/injection, schedule: Q04DX003 (ip), vehicle: saline with Tween-80
[2] = endpoint: mean survival time, dose: 200.0 mg/kg/injection, schedule: Q04DX003 (ip), vehicle: saline with Tween-80
[3] = endpoint: mean survival time, dose: 400.0 mg/kg/injection, schedule: Q04DX003 (ip), vehicle: saline with Tween-80
[4] = endpoint: mean survival time, dose: 100.0 mg/kg/injection, schedule: Q04DX002 (ip), vehicle: saline with Tween-80
[5] = endpoint: mean survival time, dose: 200.0 mg/kg/injection, schedule: Q04DX002 (ip), vehicle: saline with Tween-80
[6] = endpoint: mean survival time, dose: 400.0 mg/kg/injection, schedule: Q04DX002 (ip), vehicle: saline with Tween-80
[7] = endpoint: mean survival time, dose: 100.0 mg/kg/injection, schedule: Q01DX009 (ip), vehicle: saline with Tween-80
[8] = endpoint: mean survival time, dose: 200.0 mg/kg/injection, schedule: Q01DX009 (ip), vehicle: saline with Tween-80
[9] = endpoint: mean survival time, dose: 400.0 mg/kg/injection, schedule: Q01DX009 (ip), vehicle: saline with Tween-80
[10] = endpoint: mean survival time, dose: 100.0 mg/kg/injection, schedule: Q01DX001 (ip), vehicle: saline
[11] = endpoint: mean survival time, dose: 200.0 mg/kg/injection, schedule: Q01DX001 (ip), vehicle: saline
[12] = endpoint: mean survival time, dose: 400.0 mg/kg/injection, schedule: Q01DX001 (ip), vehicle: saline
[13] = endpoint: mean survival time, dose: 100.0 mg/kg/injection, schedule: Q04DX003 (ip), vehicle: saline

Compound: NCCOC(=O)/C=C/c1ccccc1
- T/C (endpoint: mean survival time, dose: 100.0 mg/kg/injection, schedule: Q01DX009 (ip), vehicle: saline): 93 % of control
- T/C (endpoint: mean survival time, dose: 200.0 mg/kg/injection, schedule: Q01DX009 (ip), vehicle: saline): 97 % of control

Compound: COCC(=O)C(C(C)=O)C(c1ccncc1)C(C(C)=O)C(=O)COC (configuration not stated)
- T/C [1]: 96 % of control
- T/C [2]: 98 % of control
- T/C [3]: 102 % of control

Compound: O=C1CCC(C(=O)Nc2ccc(Cl)cc2Cl)N1 (configuration not stated)
- T/C (endpoint: mean survival time, dose: 25.0 mg/kg/injection, schedule: Q04DX002 (ip), vehicle: saline with Tween-80): 98 % of control
- T/C (endpoint: mean survival time, dose: 50.0 mg/kg/injection, schedule: Q04DX002 (ip), vehicle: saline with Tween-80): 98 % of control
- T/C [4]: 98 % of control
- T/C [5]: 118 % of control
- T/C [6]: 97 % of control

Compound: CCO/N=C(\C)C(N)=O
- T/C [7]: 101 % of control
- T/C [8]: 108 % of control
- T/C [9]: 95 % of control

Compound: O=C(O)c1cc(-c2ccc(Cl)c(Cl)c2)nc2c(Cl)cc(Cl)cc12
- T/C [10]: 100 % of control
- T/C [11]: 100 % of control
- T/C [12]: 97 % of control

Compound: CCOC(=O)c1cc([N+](=O)[O-])c[nH]1
- T/C (endpoint: median survival time, dose: 25.0 mg/kg/injection, schedule: Q01DX009 (ip), vehicle: Klucel (hydroxypropylcellulose) (HPC)): 101 % of control
- T/C (endpoint: median survival time, dose: 50.0 mg/kg/injection, schedule: Q01DX009 (ip), vehicle: Klucel (hydroxypropylcellulose) (HPC)): 98 % of control
- T/C (endpoint: median survival time, dose: 100.0 mg/kg/injection, schedule: Q01DX009 (ip), vehicle: Klucel (hydroxypropylcellulose) (HPC)): 97 % of control
- T/C (endpoint: median survival time, dose: 200.0 mg/kg/injection, schedule: Q01DX009 (ip), vehicle: Klucel (hydroxypropylcellulose) (HPC)): 98 % of control

Compound: O=C(O)CC(O)(CC(=O)O)C(=O)O.[Sn]
- T/C (endpoint: mean survival time, dose: 6.25 mg/kg/injection, schedule: Q04DX003 (ip), vehicle: saline with Tween-80): 98 % of control
- T/C (endpoint: mean survival time, dose: 12.5 mg/kg/injection, schedule: Q04DX003 (ip), vehicle: saline with Tween-80): 90 % of control
- T/C (endpoint: mean survival time, dose: 25.0 mg/kg/injection, schedule: Q04DX003 (ip), vehicle: saline with Tween-80): 102 % of control

Compound: CC(C)OC(=O)Nc1cc(F)cc(C(F)(F)F)c1F
- T/C [7]: 94 % of control
- T/C [8]: 97 % of control
- T/C [9]: 97 % of control

Compound: CCCc1nc2[nH]c(N)nc(=S)c2[nH]1
- T/C (endpoint: mean survival time, dose: 12.5 mg/kg/injection, schedule: Q01DX005 (ip), vehicle: other): 100 % of control
- T/C (endpoint: mean survival time, dose: 25.0 mg/kg/injection, schedule: Q01DX005 (ip), vehicle: other): 108 % of control

Compound: CC1C2C=CC1C(c1c3ccc(=O)cc-3oc3cc(O)ccc13)C2C(=O)O (configuration not stated)
- T/C [1]: 103 % of control
- T/C [2]: 97 % of control
- T/C [3]: 111 % of control

Compound: CCCCOc1ccc(Cl)cc1
- T/C [4]: 90 % of control
- T/C [5]: 87 % of control

Compound: CN(CC(=O)C(C)(C)C)C1CCCCC1
- T/C [13]: 91 % of control

Compound: Clc1ccc(SCNc2ccccc2Cl)cc1
- T/C [4]: 100 % of control
- T/C [5]: 100 % of control
- T/C [6]: 100 % of control

Compound: O=[N+]([O-])c1cccc(OCCCOc2ccccc2)c1
- T/C (endpoint: mean survival time, dose: 100.0 mg/kg/injection, schedule: Q04DX003 (ip), vehicle: other): 93 % of control
- T/C (endpoint: mean survival time, dose: 200.0 mg/kg/injection, schedule: Q04DX003 (ip), vehicle: other): 93 % of control
- T/C (endpoint: mean survival time, dose: 400.0 mg/kg/injection, schedule: Q04DX003 (ip), vehicle: other): 94 % of control

Compound: Cc1ccc(O)c(C)n1
- T/C [13]: 104 % of control
- T/C (endpoint: mean survival time, dose: 200.0 mg/kg/injection, schedule: Q04DX003 (ip), vehicle: saline): 98 % of control
- T/C (endpoint: mean survival time, dose: 400.0 mg/kg/injection, schedule: Q04DX003 (ip), vehicle: saline): 97 % of control

Compound: C[n+]1cccc(C=O)c1
- T/C [10]: 103 % of control
- T/C [11]: 105 % of control
- T/C [12]: 108 % of control

Compound: CN(C)c1cc2c3c(c1)CCCN3CCC2
- T/C (endpoint: mean survival time, dose: 3.13 mg/kg/injection, schedule: Q01DX009 (ip), vehicle: saline): 98 % of control
- T/C (endpoint: mean survival time, dose: 6.25 mg/kg/injection, schedule: Q01DX009 (ip), vehicle: saline): 109 % of control
- T/C (endpoint: mean survival time, dose: 12.5 mg/kg/injection, schedule: Q01DX009 (ip), vehicle: saline): 96 % of control

Compound: O=C(Nc1ccccc1C(F)(F)F)n1c(=S)[nH]c2cc([N+](=O)[O-])ccc21
- T/C (endpoint: mean survival time, dose: 50.0 mg/kg/injection, schedule: Q01DX009 (ip), vehicle: saline with Tween-80): 90 % of control
- T/C [7]: 105 % of control
- T/C [8]: 94 % of control
